Consider two compounds from patent US7829589B2, “Sulfonamide compounds and uses thereof” (Elixir Pharmaceuticals, Inc., priority 2005, dated 2010).

In data set [1] the test system is mice. The data set can be described thus: Fast refeed assay. The format is in vivo. As to the method: Food is removed at 6 pm for an overnight (˜16 hour) fast. Beginning at 10 am on the next morning, mice are administered with either vehicle (e.g., saline+acetic acid, pH=5) or the compound of interest. Mice are then returned to their home cages and pre-weighed food (approximately 90 grams) is immediately returned to the food hoppers in each cage. The weight of the food remaining in the food hoppers is measured at 30 minutes, 1 hour, 2 hours, and 4 hours post compound/vehicle administration. Final body weights are then recorded for the mice.

A short description of data set [2]: Preliminary PK studies (IV/PO), oral bioavailability and brain/plasma ratio. The data set is classed as in vivo. The settings on record: mouse, male diet-induced obese C57bl/6 mice. The protocol:
Male, diet-induced obese, ad libidum fed, C57bl/6 mice were used for these preliminary PK studies. They were dosed (n=3 mice per data point) either IV or PO. Mice ere sacrificed and the blood/brains collected at the following times: IV samples were taken at 5, 15, 30, 60, 120, 240, 480 minutes after dosing; PO samples were taken at 15, 30, 60, 120, 240, 480 minutes after dosing. Plasma and brain samples were evaluated for the presence of compound. Oral bioavailability (% F) was determined by comparing the plasma AUCIV and AUCPO. The brain/plasma ratio was determined by comparing the brain AUC and plasma AUC values.

Data set [3] relates to C57bl/6 mice. Description: 28 days oral dosing in diet-induced obese mice: body weight and food intake. The data set is classed as in vivo. The settings on record: bid po up to 28 days. The source says: (§1) Group housed, male, C57bl/6 mice received high fat diet and water ad lib to establish diet-induced obesity, and for the duration of the experiment. After acclimating to individual housing for at least 5 days, mice were then acclimated to bid oral gavage with vehicle for 7 days. Once acclimated, mice were culled into equal groups (n>10/group) according to body weight and compound dosing began. Mice received either vehicle or compound (bid, po) for periods up to 28 days, during which body weight and food intake were measured daily. Representative cohorts (based on BW) for each group were removed at 7, 14, 21 or 28 days for glucose tolerance tests and tissue analysis.

Another data set deals with mice (DIO). Description: Glucose tolerance test (GTT), insulin sensitivity in DIO mice. The data set is classed as in vivo.
Text: as §1
On the night prior to the GTT, mice (DIO) within each dose group (n=8/group) had their body weight measured and were then fasted overnight for 16 hours prior to the GTT. On the morning of the GTT a 40 µL blood sample was removed from the tail for baseline fasted blood glucose and plasma insulin measurements. Mice then received their normal dose of compound. One hour later mice were dosed with glucose ([…], either IP or PO) and further tail bleeds (40 µL) were taken at 15, 30, 60 and 120 minutes after the glucose dose for blood glucose and plasma insulin measurements. Mice were sacrificed following the final sample time. Baseline fasted blood glucose levels are provided in FIG. 4a for compound 57 and in FIG. 4d for compound 94.

For data set [4], the system named is mice. The data set can be described thus: Plasma HbA1c and lipid profile after 28 day dosing. The settings on record: at 28 days, versus vehicle. The data set is classed as in vivo.
Text: as §1
Mice are sacrificed by CO2 asphyxiation and terminal blood samples were collected via cardiac puncture. For HbA1c, whole blood is analyzed using a DCA2000+ glycated hemoglobin analyzer (Bayer Healthcare, Indianapolis, Ind.). Triglycerides, total cholesterol, and HDL-cholesterol were all measured using a Cholestech LDX lipid profile analyzer (Cholestech, Hayward, Calif.). As shown in FIG. 6 and FIG. 7, both plasma HbA1c and cholesterol levels were improved at 28 days in animals treated with compound 57 and compound 94 versus animals treated with vehicle alone.

Data set [5] has as its system C57bl/6 mice. Description: Ghrelin-induced food intake in mice dosed ip. The data set is classed as in vivo. The settings on record: 1, 3, 10, 30 mpk ip after ghrelin ip; food intake at 1, 2, 4, 6 hours; relative to vehicle. The protocol: Ad libidum low fat chow-fed male C57bl/6 mice were acclimated to individual housing for >5 days prior to the experiment. On the morning of the experiment food was removed from the cages and animals were then dosed ip (n=8/group) with either vehicle or ghrelin followed one minute later by a second ip injection containing either vehicle or one of several doses of compound (1, 3, 10, 30mpk ip). Immediately after the second dosing food was returned to the cages and food intake was measured 1, 2, 4 and 6 hours later.

The target in a further data set is GHS-R (Homo sapiens, UniProt Q92847). The data set can be described thus: GHS-R antagonist activity (Ki) in a cell based assay. The procedure, abridged: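 Transfected COS-7 cells were labelled 24 h with [^3H]-myo-inositol and preincubated 30 min at 37 °C in HEPES buffer pH 7.4 with 10 mM LiCl, optionally with 1 U/ml adenosine deaminase. Compound was applied for 45 min at 37 °C. [^3H]-inositol phosphates were extracted with perchloric acid and isolated by anion-exchange resin.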

Entries after “also recorded” stand apart in the source; their conditions may differ. Ends that are not written are not given here.

GHS-R, sequence (Q92847 whole entry, species assumed): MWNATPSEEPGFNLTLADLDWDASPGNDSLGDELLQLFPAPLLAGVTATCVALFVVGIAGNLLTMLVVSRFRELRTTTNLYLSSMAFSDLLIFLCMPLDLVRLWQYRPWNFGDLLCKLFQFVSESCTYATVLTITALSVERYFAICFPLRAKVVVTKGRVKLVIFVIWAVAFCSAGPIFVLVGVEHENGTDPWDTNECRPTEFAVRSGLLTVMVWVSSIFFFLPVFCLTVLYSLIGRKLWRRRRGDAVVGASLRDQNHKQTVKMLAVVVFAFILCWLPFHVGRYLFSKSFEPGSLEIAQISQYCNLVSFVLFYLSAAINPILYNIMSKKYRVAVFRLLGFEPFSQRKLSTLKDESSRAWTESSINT

Turning to “substance P (RPKPQQFFGLM-NH2; ends and bridges not checked; UniProt P20366 58-68, looked up)”, in the data set with mice [1], the feeding activity entry is on record as “alters feeding activity”.
As a reminder, the Kp is tissue or fluid exposure divided by exposure in the circulation. By bioavailability is commonly meant the share of a dose that reaches the circulation, judged against a reference dose that is usually intravenous. The term Ki denotes the equilibrium dissociation constant of an inhibitor or competing ligand from its target. Read a high Ki as a looser hold on the target. In the case of `CCN(CC)CCCS(=O)(=O)N[C@H](CCc1ccccc1)c1nc(Cc2ccc(Br)cc2)no1` [Compound 57, 3-Diethylamino-propane-1-sulfonic acid {(R)-1-[3-(4-bromo-benzyl)-[1,2,4]oxadiazol-5-yl]-3-phenyl-propyl}-amide], in data set [2] (brain and plasma, brain AUC vs plasma AUC), the Kp stood at 0.139. Further, the bioavailability in data set [2] (oral bioavailability, plasma AUC PO vs IV) was 10.2%. In the data set with C57bl/6 mice [3], the body weight result is “decreased body weight; also recorded: decrease in body weight”. Further, the food intake entry in the data set with C57bl/6 mice [3] is recorded as “No apparent effect on food intake”. In addition, the insulin sensitivity entry in the data set with mice (DIO) (FIGS. 4a-4f, 7 to 28 days oral dosing) is on record as “improvement in insulin sensitivity”; in the data set on mice (DIO) (GTT at 7 days of oral dosing), “improved insulin sensitivity”; in the data set with mice (DIO) (GTT at 21 days of oral dosing) it was “improved insulin sensitivity”. In the data set with mice [4], the cholesterol levels entry is “improved cholesterol levels”. The “plasma HbA1c levels” value in the data set on mice [4] is reported as “improved plasma HbA1c levels”. Further, the ghrelin-induced food intake entry in the data set on C57bl/6 mice [5] is given as “block ghrelin-induced food intake; also recorded: reduced food intake”. The compound also came in with a Ki at GHS-R below 100 nM.
